Assay results: patent US20230115274A1, “COMPOUNDS AND COMPOSITIONS FOR TREATING CONDITIONS ASSOCIATED WITH STING ACTIVITY” (IFM Due, Inc., priority 2019, published 2023)

Target: T1, hSTING (Homo sapiens, UniProt Q86WV6, G230A/H232R/R293Q/R71H)
T1 construct: host or cells: THP1-Dual KO-IFNAR2 cells
Experiment: STING reporter assay (luciferase) in THP1-Dual KO-IFNAR2 cells stimulated with 2′3′cGAMP
Assay type: cell-based
Settings: 2′3′cGAMP 15 μM, 24 h
Procedure: STING pathway activation by the compounds described herein was measured using THP1-Dual™ cells (KO-IFNAR2).
THP1-Dual™ KO-IFNAR2 Cells (obtained from invivogen) were maintained in RPMI, 10% FCS, 5 ml P/S, 2 mM L-glut, 10 mM Hepes, and 1 mM sodium pyruvate. Compounds were spotted in empty 384 well tissue culture plates (Greiner 781182) by Echo for a final concentration of 0.0017-100 μM. Cells were plated into the TC plates at […], 2×10E6 cells/mL. For activation with STING ligand, 2′3′cGAMP (MW 718.38, obtained from Invivogen), was prepared in Optimem media.
The following solutions were prepared for each 1×384 plate: • Solution A: 2 mL Optimem with one of the following stimuli: • […] • Solution B: 2 mL Optimem with 60 μL Lipofectamine 2000->Incubate 5 min at RT
2 mL of solution A and 2 ml Solution B was mixed and incubated for 20 min at room temperature (RT). 20 uL of transfection solution (A+B) was added on top of the plated cells, with a final 2′3′cGAMP concentration of 15 μM. The plates were then centrifuged immediately at 340 g for 1 minute, after which they were incubated at 37° C., 5% CO2, >98% humidity for 24 h. Luciferase reporter activity was then measured. EC50 values were calculated by using standard methods known in the art.
Luciferase reporter assay: 10 μL of supernatant from the assay was transferred to white 384-plate with flat bottom and squared wells. One pouch of QUANTI-Luc™ Plus was dissolved in 25 mL of water. 100 μL of QLC Stabilizer per 25 mL of QUANTI-Luc™ Plus solution was added. 50 μL of QUANTI-Luc™ Plus/QLC solution per well was then added. Luminescence was measured on a Platereader (e.g., Spectramax I3X (Molecular Devices GF3637001)).
Luciferase reporter activity was then measured. EC50 values were calculated by using standard methods known in the art.

T1 sequence (Q86WV6 whole entry R71H/G230A/H232R/R293Q): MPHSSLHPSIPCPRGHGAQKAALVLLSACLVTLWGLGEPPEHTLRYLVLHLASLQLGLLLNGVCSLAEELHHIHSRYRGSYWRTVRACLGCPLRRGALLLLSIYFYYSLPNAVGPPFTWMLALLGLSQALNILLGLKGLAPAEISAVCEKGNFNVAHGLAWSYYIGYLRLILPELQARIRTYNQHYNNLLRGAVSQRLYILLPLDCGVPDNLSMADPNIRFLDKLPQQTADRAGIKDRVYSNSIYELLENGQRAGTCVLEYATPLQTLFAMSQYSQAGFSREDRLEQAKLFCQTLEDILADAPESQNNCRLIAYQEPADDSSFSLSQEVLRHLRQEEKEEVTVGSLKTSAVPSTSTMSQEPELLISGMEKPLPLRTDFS

Structure (SMILES)	EC50 (class symbols)	EC50 (numeric bounds)
O=C(Nc1cnc(N2CCC(F)(F)CC2)c(Cl)c1)Nc1c[nH]c2cc(Br)cnc12 [Compound 240, 1-(6-bromo-1H-pyrrolo[3,2-b]pyridin-3-yl)-3-(5-chloro-6-(4,4-difluoropiperidin-1-yl)pyridin-3-yl)urea]	5 to 100 µM	
COc1ccc2[nH]cc(NC(=O)Nc3cnn(C4CCC(F)(F)CC4)c3)c2n1 [Compound 209, 1-(1-(4,4-difluorocyclohexyl)-1H-pyrazol-4-yl)-3-(5-methoxy-1H-pyrrolo[3,2-b]pyridin-3-yl)urea]		> 30 µM
O=C(Nc1ccc(N2CCC(F)(F)CC2)nn1)Nc1c[nH]c2ncc(F)cc12 [Compound 193, 1-(6-(4,4-difluoropiperidin-1-yl)pyridazin-3-yl)-3-(5-fluoro-1H-pyrrolo[2,3-b]pyridin-3-yl)urea]	5 to 100 µM	
CCc1ccc2[nH]cc(NC(=O)Nc3cnc(N4CCC(F)(F)CC4)c(C)c3)c2n1 [Compound 139, 1-(6-(4,4-difluoropiperidin-1-yl)-5-methylpyridin-3-yl)-3-(5-ethyl-1H-pyrrolo[3,2-b]pyridin-3-yl)urea]	1 to 5 µM	
O=C(Nc1cnc(N2CCC(F)(F)CC2)c(Cl)c1)Nc1c[nH]c2cccnc12 [Compound 188, 1-(5-chloro-6-(4,4-difluoropiperidin-1-yl)pyridin-3-yl)-3-(1H-pyrrolo[3,2-b]pyridin-3-yl)urea]	0.2 to 1 µM	
O=C(Nc1cnc(OC2CCC2)c(F)c1)Nc1c[nH]c2ncc(F)cc12 [Compound 111, 1-(6-cyclobutoxy-5-fluoropyridin-3-yl)-3-(5-fluoro-1H-pyrrolo[2,3-b]pyridin-3-yl)urea]	0.2 to 1 µM	
O=C(Nc1ccc(C2CC(F)(F)C2)c(F)c1)Nc1c[nH]c2ncc(F)cc12 [Compound 201, 1-(4-(3,3-difluorocyclobutyl)-3-fluorophenyl)-3-(5-fluoro-1H-pyrrolo[2,3-b]pyridin-3-yl)urea]	0.2 to 1 µM	
O=C(Nc1ccc(C2CCC(F)(F)CC2)nc1)Nc1c[nH]c2ccc(OCCC(F)(F)F)nc12 [Compound 204, 1-(6-(4,4-difluorocyclohexyl)pyridin-3-yl)-3-(5-(3,3,3-trifluoropropoxy)-1H-pyrrolo[3,2-b]pyridin-3-yl)urea]	1 to 5 µM	
COc1ccc2[nH]cc(NC(=O)Nc3ccc(C4CC(F)(F)C4)c(F)c3)c2n1 [Compound 238, 1-(4-(3,3-difluorocyclobutyl)-3-fluorophenyl)-3-(5-methoxy-1H-pyrrolo[3,2-b]pyridin-3-yl)urea]	0.2 to 1 µM	
O=C(Nc1ccc(C2CCC(F)(F)CC2)nc1)Nc1cn(Cc2ccccc2)c2ncc(F)cc12 [Compound 104, 1-(1-benzyl-5-fluoro-1H-pyrrolo[2,3-b]pyridin-3-yl)-3-(6-(4,4-difluorocyclohexyl)pyridin-3-yl)urea]	5 to 100 µM	
COc1ccc2[nH]cc(NC(=O)Nc3cnc(N4CCC(F)(F)CC4)c(F)c3)c2n1 [Compound 187, 1-(6-(4,4-difluoropiperidin-1-yl)-5-fluoropyridin-3-yl)-3-(5-methoxy-1H-pyrrolo[3,2-b]pyridin-3-yl)urea]	0.2 to 1 µM	
O=C(Nc1cnc(N2CCC3(CC2)CC3)c(Cl)c1)Nc1c[nH]c2cccnc12 [Compound 221, 1-(5-chloro-6-(6-azaspiro[2.5]octan-6-yl)pyridin-3-yl)-3-(1H-pyrrolo[3,2-b]pyridin-3-yl)urea]	0.2 to 1 µM	

Second part, the compound after the results:

EC50 (class symbols)	EC50 (numeric bounds)	Structure (SMILES)
1 to 5 µM		COc1cnc2[nH]cc(NC(=O)Nc3cnc(C4CCC(F)(F)CC4)c(C)c3)c2c1 [Compound 174, 1-(6-(4,4-difluorocyclohexyl)-5-methylpyridin-3-yl)-3-(5-methoxy-1H-pyrrolo[2,3-b]pyridin-3-yl)urea]
0.04 to 0.2 µM		O=C(Nc1cnc(N2CCC(F)(F)CC2)c(Cl)c1)Nc1c[nH]c2ncc(F)cc12 [Compound 110, 1-(5-chloro-6-(4,4-difluoropiperidin-1-yl)pyridin-3-yl)-3-(5-fluoro-1H-pyrrolo[2,3-b]pyridin-3-yl)urea]
	> 30 µM	Cc1cc(N2CCC(F)(F)CC2)ncc1NC(=O)Nc1c[nH]c2ncc(F)cc12 [Compound 185, 1-(6-(4,4-difluoropiperidin-1-yl)-4-methylpyridin-3-yl)-3-(5-fluoro-1H-pyrrolo[2,3-b]pyridin-3-yl)urea]
0.2 to 1 µM		O=C(Nc1cc(Cl)c(N2CCC(F)(F)CC2)cn1)Nc1c[nH]c2ncc(F)cc12 [Compound 186, 1-(4-chloro-5-(4,4-difluoropiperidin-1-yl)pyridin-2-yl)-3-(5-fluoro-1H-pyrrolo[2,3-b]pyridin-3-yl)urea]
1 to 5 µM		COCCOc1ccc2[nH]cc(NC(=O)Nc3ccc(C4CCC(F)(F)CC4)nc3)c2n1 [Compound 212, 1-(6-(4,4-difluorocyclohexyl)pyridin-3-yl)-3-(5-(2-methoxyethoxy)-1H-pyrrolo[3,2-b]pyridin-3-yl)urea]
0.04 to 0.2 µM		O=C(Nc1cnc(C2CCC(F)(F)CC2)c(F)c1)Nc1c[nH]c2ncc(F)cc12 [Compound 113, 1-(6-(4,4-difluorocyclohexyl)-5-fluoropyridin-3-yl)-3-(5-fluoro-1H-pyrrolo[2,3-b]pyridin-3-yl)urea]
0.2 to 1 µM		O=C(Nc1cnc(C2CCC(F)(F)CC2)c(Cl)c1)Nc1c[nH]c2cccnc12 [Compound 142, 1-(5-chloro-6-(4,4-difluorocyclohexyl)pyridin-3-yl)-3-(1H-pyrrolo[3,2-b]pyridin-3-yl)urea]
1 to 5 µM		Cc1cnc2[nH]cc(NC(=O)Nc3ccc(C4CCC(F)(F)CC4)nc3)c2c1 [Compound 106, 1-(6-(4,4-difluorocyclohexyl)pyridin-3-yl)-3-(5-methyl-1H-pyrrolo[2,3-b]pyridin-3-yl)urea]
1 to 5 µM		O=C(Nc1ccc(C2CC(F)(F)C2)nc1)Nc1c[nH]c2ncc(F)cc12 [Compound 161, 1-(6-(3,3-difluorocyclobutyl)pyridin-3-yl)-3-(5-fluoro-1H-pyrrolo[2,3-b]pyridin-3-yl)urea]
1 to 5 µM		COC1CCN(c2ncc(NC(=O)Nc3c[nH]c4ncc(F)cc34)cc2C)CC1 [Compound 194, 1-(5-fluoro-1H-pyrrolo[2,3-b]pyridin-3-yl)-3-(6-(4-methoxypiperidin-1-yl)-5-methylpyridin-3-yl)urea]
0.2 to 1 µM		Cc1cc(NC(=O)Nc2c[nH]c3ncc(F)cc23)cnc1N1CCC(C)CC1 [Compound 170, 1-(5-fluoro-1H-pyrrolo[2,3-b]pyridin-3-yl)-3-(5-methyl-6-(4-methylpiperidin-1-yl)pyridin-3-yl)urea]
1 to 5 µM		N#Cc1cc(NC(=O)Nc2c[nH]c3cccnc23)cnc1C1CCC(F)(F)CC1 [Compound 237, 1-(5-cyano-6-(4,4-difluorocyclohexyl)pyridin-3-yl)-3-(1H-pyrrolo[3,2-b]pyridin-3-yl)urea]
0.2 to 1 µM		COc1cnc2[nH]cc(NC(=O)Nc3cnc(N4CCC(F)(F)CC4)c(C)c3)c2c1 [Compound 168, 1-(6-(4,4-difluoropiperidin-1-yl)-5-methylpyridin-3-yl)-3-(5-methoxy-1H-pyrrolo[2,3-b]pyridin-3-yl)urea]
0.2 to 1 µM		O=C(Nc1ccc(C2CCCC2)nc1)Nc1c[nH]c2ncc(F)cc12 [Compound 109, 1-(6-cyclopentylpyridin-3-yl)-3-(5-fluoro-1H-pyrrolo[2,3-b]pyridin-3-yl)urea]
0.2 to 1 µM		COCCOc1ccc2[nH]cc(NC(=O)Nc3cnc(C4CCC(F)(F)CC4)c(Cl)c3)c2n1 [Compound 211, 1-(5-chloro-6-(4,4-difluorocyclohexyl)pyridin-3-yl)-3-(5-(2-methoxyethoxy)-1H-pyrrolo[3,2-b]pyridin-3-yl)urea]
